Measurements taken from the SangsterLogP compilation.

logP | Compound
4.55 | COC(=O)CCc1ccc2c(c1O)C(=O)c1c(O)cccc1C2
4.11 | O=C1c2c(O)cccc2Cc2ccc(C(Cc3ccccc3)C(=O)O)c(O)c21 (stereo not drawn)
4.77 | COC(=O)C(C)C(C)c1ccc2c(c1O)C(=O)c1c(O)cccc1C2 (stereo not drawn)
3.91 | O=C(O)CCCc1ccc2c(c1O)C(=O)c1c(O)cccc1C2
3.4 | CC(C(=O)O)c1ccc2c(c1O)C(=O)c1c(O)cccc1C2 (stereo not drawn)
3.78 | O=C(O)CCc1ccc2c(c1O)C(=O)c1c(O)cccc1C2
4.16 | COC(=O)C(C)c1ccc2c(c1O)C(=O)c1c(O)cccc1C2 (stereo not drawn)
3.93 | COC(=O)Cc1ccc2c(c1O)C(=O)c1c(O)cccc1C2
3.9 | CC(C(=O)O)C(C)c1ccc2c(c1O)C(=O)c1c(O)cccc1C2 (stereo not drawn)

Continued, compound first:

Compound | logP
COC(=O)CCCc1ccc2c(c1O)C(=O)c1c(O)cccc1C2 | 4.63
O=C(O)CCCCc1ccc2c(c1O)C(=O)c1c(O)cccc1C2 | 4.22
COC(=O)CCCCc1ccc2c(c1O)C(=O)c1c(O)cccc1C2 | 4.97
COC(=O)CCCCCc1ccc2c(c1O)C(=O)c1c(O)cccc1C2 | 5.34
COC(=O)C(CCc1ccccc1)c1ccc2c(c1O)C(=O)c1c(O)cccc1C2 (stereo not drawn) | 5.17
O=C1c2c(O)cccc2Cc2ccc(C(CCc3ccccc3)C(=O)O)c(O)c21 (stereo not drawn) | 4.33
COC(=O)c1ccc(C(=O)c2ccc3c(c2O)C(=O)c2c(O)cccc2C3)cc1 | 5.22
O=C(O)CCCCCc1ccc2c(c1O)C(=O)c1c(O)cccc1C2 | 4.6
COC(=O)C(Cc1ccccc1)c1ccc2c(c1O)C(=O)c1c(O)cccc1C2 (stereo not drawn) | 4.86
